Measured values as given in patent US7943633B2, “Alkaloid compounds and their use as anti-malarial drugs” (Universite Pierre et Marie Curie (Paris VI), priority 2004, dated 2011).
Several values for one entry are separate records, joined by “and”; a condition that tells them apart may be missing. Equal values may be shown once. Read-outs that look alike come from different tables or passages of the source.

What was measured:
[1] = In vitro cytotoxicity, neutral red, HT29 cells; format: cell-based; conditions: human, HT29 colon tumor cells (ATCC HTB-38), 72 hours incubation, read-out: CI50 cytotoxicity HT29 (converted)
Protocol: (§1) Stock solutions of testing compounds were prepared in H2O/DMSO (9/1).
(§2) After an incubation of 72 hours at 37° C. under a 5% CO2 atmosphere, 0.02% of neutral red in PBS was added.
(§3) 24 hours later, culture media were eliminated and cell membranes were lysed by addition of 1% of SDS in water.
(§4) Cell growth was estimated by colorimetric measurement of stained living cells, incorporating neutral red. Optical density was determined at 540 nm on a Titertek Multiskan photometer.
(§5) The Cl50 value was defined as the concentration of compound necessary to inhibit the cell growth to 50% of the control.

[2] = In vitro cytotoxicity, neutral red, KB cells; format: cell-based; conditions: human, KB carcinoma cells (ATCC CCL-17), 72 hours incubation, read-out: CI50 cytotoxicity KB (converted)
Protocol: as §1, §2, §3, §4, §5

[3] = tested on: Plasmodium yoelii yoelii 265BY; assay: In vitro inhibition of P. yoelii yoelii 265BY growth (hepatic stage) in primary murine hepatocytes; format: cell-based; conditions: for IC50: Plasmodium yoelii, Hepatocyte, read-out: CI50 activity P. yoelii 265BY; for Selectivity index CI50 KB/CI50 yoelii: ratio between CI50 of cytotoxicity (KB) and CI50 of anti-malarial activity
Protocol: Primary cultures of mouse hepatocytes were isolated from livers of Swiss mice which were 6 to 8 weeks old by perfusion with collagenase (1 g/L) and purified through a 60% Percoll gradient.
The hepatocytes were cultured in sterile chambers (Lab-Tek) at the rate of 90,000 cells in 0.3 mL of complete culture medium as defined thereafter per well and incubated overnight at 37° C. under a 4% CO2 atmosphere. The hepatocytes' complet culture medium was Williams' E culture medium supplemented with 10% of decomplemented foetal calf serum, 1% glutamine, 1% Na pyruvate, 1% of a mixture of insulin, transferrine and selenium, 1% of non-essential amino-acids and with an antibiotic mixture comprising 1% of a solution of penicillin and streptomycine, 1% augmentin and […] flucytosine.
The parasites infecting the hepatocytes; i.e. the sporozoites, were recovered by dissection of infected anopheles mosquitoes salivary glands.
After grinding them in a Potter grinder with culture medium, the suspension was filtered on a 40 μm mesh filter and centrifuged (15,000 rpm) at 4° C. for 2 mn. The pellet was reintroduced in the complete culture medium. The sporozoites were then counted in a “Cell Vu” counter (CML) and the concentration was adjusted at 100,000 sporozoites per 70 μL, concentration needed for infection.
One day after, the hepatocytes were infected by the above sporozoites from salivary glands of infected anopheles mosquitoes at the rate of 100,000 sporozoites per well in the presence or absence of the product to be tested. When the infection had appeared, the medium was supplemented with 10^−7 M dexamethasone. The products were first solubilized in DMSO.
The infected hepatocytes were washed and fed with culture medium containing the test product, 3 hours and then 24 hours after the infection.
The cultures were stopped by treatment with a cold fixative methanol solution, 48 hours after the infection.
Parasites obtained in schizont stage were immunomarked firstly, with a serum isolated from BALB/c mice immunized with a recombinant fragment from the N-terminal of the recombinant protein I72 that reacted against HSP70 of Plasmodium and secondly with an antibody—a mouse anti-immunoglobulin—conjugated to FITC. Evans Blue and DAPI, a nucleic acid marker, were added to the hepatocytes simultaneously. The schizonts were then counted with a fluorescent microscope.
(§6) The Cl50 value (concentration causing 50% of inhibition in the number of parasites compared to controls wells, non treated) is the mean value of 3 independent evaluations through StatView SI Graphics.

[4] = tested on: Plasmodium falciparum NF54; assay: In vitro inhibition of P. falciparum NF54 (hepatic stage) in human hepatocytes; format: cell-based; conditions: NF54, Hepatocyte, 120 h, fixed 5 days after infection, read-out: CI50 activity P. falciparum NF54
Protocol: B—Human Model: Hepatic Stage of Plasmodium falciparum NF54
Human hepatocytes were obtained by enzymatic perfusion of fragments of liver of human adults which were submitted to partial hepatectomy.
The hepatocytes were infected at 24 hours of their culture by sporozoites obtained from salivary glands of P. falciparum infecting anopheles mosquitoes stephensi (Lab. of Pr. W. Eling, Univ. Of Nijmegen, NL).
The culture medium containing the test product was changed 3 hours after infection, and then renewed at least, each 24 hours during the experiment.
The cultures were fixed 5 days after infection, with the same method as described for the murine hepatocytes.
as §6

[5] = tested on: Plasmodium yoelii yoelii 265BY; assay: In vivo antimalarial activity in Swiss mice infected with sporozoites; conditions: for number of parasited red blood cells (parasitemia): compared to control group; for Number of parasited mice/total mice: 100 mg/kg fed four times
Protocol: 40 Swiss mice (six week old) have been subjected to the in vivo assay. They have been allotted in two groups: • a group of 20 mice were fed with compound (1) diluted in sterile water at a dose of 100 mg/kg four times; 24 hours and 1 hour before infection, 24 hours and 40 hours after infection during the hepatic stage period. • a control group of 20 mice were fed with sterile water at the same times.
The infection has been performed by retro-orbital injection of 4,000 sporozoites of Plasmodium yoelii yoelii 265BY in 100 μl phospate-buffered saline per mouse.
The parasitemia was monitored from the third day after the infection D3 when the parasites are liberated from the liver and enter into the blood circulation and each day until the 23rd day D23 after infection. The monitoring was performed by blood smears taken from the tail vein of the mice. The smears were stained with Giemsa and parasited red blood cells were counted with a microscope.
The parasitemia was calculated according to the following formula: Parasited red blood cell number×100/total red blood cell number.

SMILES	IC50 at 72 h [1]	IC50 at 72 h [2]	Selectivity index CI50 KB/CI50 yoelii [3]	IC50 ([3]; 48 h)	other results
O=c1[nH]cc(F)c(=O)[nH]1 [5-fluorouracile, reference compound]	54.9 µg/mL and 422 µM	0.047 µg/mL and 360 nM			
O=C1C(O)=C([C@H]2CC[C@H](c3ccc(Cl)cc3)CC2)C(=O)c2ccccc21 [Atovaquone, atovaquone, reference compound]	44.6 µg/mL and 122 µM	18.6 µg/mL and 50.8 µM	891.2		IC50 ([3]; murine hepatocytes, schizonts counted 48 hours after infection, mean of 3 evaluations): 0.021 µg/mL; IC50 ([3]; murine hepatocytes, schizonts counted 48 hours after infection): 57 nM
COC1=C2[C@H]3NCC[C@]2(C[C@H](O)[C@@H]1O)c1c(ccc(OC)c1O)[C@H]3O [Compound (1), 4,6,7,10-tetrahydroxy-8,14-didehydro-3,8-dimethoxy-morphinan]	22 µg/mL and 63 µM	1.99 µg/mL and 5.7 µM	1.8	1.08 µg/mL and 3.1 µM	IC50 [4]: 1.51 µg/mL and 4.3 µM; number of parasited red blood cells (parasitemia) ([5]; 100 mg/kg): reduces parasitemia; number of parasited red blood cells (parasitemia) ([5]; 100 mg/kg, listed as compound (1)): significant decrease; total protection against malaria infection in mice ([5]; 100 mg/kg, oral administration): 70%; survival of mice at D23 ([5]; 100 mg/kg, control group 75%): 90%; delay of parasitemia for treated mice not protected, compared to control ([5]; 100 mg/kg, the 30% of treated mice not protected): ≥ 3 days; Number of parasited mice/total mice ([5]; D3 post-infection): 0/20; Number of parasited mice/total mice ([5]; D4 post-infection): 0/20; Number of parasited mice/total mice ([5]; D5 post-infection): 0/20; Number of parasited mice/total mice ([5]; D6 post-infection): 1/20; Number of parasited mice/total mice ([5]; D7 post-infection): 4/20; Number of parasited mice/total mice ([5]; D8 post-infection): 6/20; Number of parasited mice/total mice ([5]; D23 post-infection): 6/18
COC1=C2[C@@H]3Cc4ccc(OC)c(O)c4[C@]2(CCN3)C[C@H](O)[C@@H]1O [Compound (2), 4,6,7-trihydroxy-8,14-didehydro-3,8-dimethoxy-morphinan]	12.2 µg/mL and 36.8 µM	1.3 µg/mL and 3.9 µM	0.9	1.5 µg/mL and 4.5 µM	IC50 [4]: 3.36 µg/mL and 10.1 µM
COC1=C2[C@@H]3[C@H](O)c4ccc(OC)c(O)c4[C@]2(CCN3C)C[C@H](O)[C@@H]1O [Compound (3), N-methyl-4,6,7,10-tetrahydroxy-8,14, didehydro-3,8-dimethoxy-morphinan]	> 80 µg/mL and > 220 µM	32.3 µg/mL and 89 µM	15.5	2.09 µg/mL and 5.8 µM	
CCCN1CC[C@@]23C[C@H](O)[C@H](O)C(OC)=C2[C@@H]1[C@H](O)c1ccc(OC)c(O)c13 [Compound (4), N-propyl-4,6,7,10-tetrahydroxy-8,14, didehydro-3,8-dimethoxy-morphinan]	> 80 µg/mL and > 204 µM	40.4 µg/mL and 103 µM	8.2	4.93 µg/mL and 12.6 µM	
COC1=C2[C@@H]3[C@H](O)c4ccc(OC)c(O)c4[C@]2(CCN3Cc2ccc(OC)cc2)C[C@H](O)[C@@H]1O [Compound (5), N-4-methoxybenzyl-4,6,7,10-tetrahydroxy-8,14, didehydro-3,8-dimethoxy-morphinan]	> 80 µg/mL and > 170 µM	21.2 µg/mL and 45.3 µM	1.9	11.4 µg/mL and 24.2 µM	
COC1=C2[C@@H]3[C@H](O)c4ccc(OC)c(O)c4[C@]2(CCN3Cc2ccc(O)cc2)C[C@H](O)[C@@H]1O [Compound (6), N-4-hydroxybenzyl-4,6,7,10-tetrahydroxy-8,14, didehydro-3,8-dimethoxy-morphinan]	49 µg/mL and 108 µM	9.53 µg/mL and 20.9 µM	1.5	6.44 µg/mL and 14.2 µM	
COC1=C2[C@@H]3[C@H](O)c4ccc(OC)c(O)c4[C@]2(CCN3Cc2ccc(Br)cc2)C[C@H](O)[C@@H]1O [Compound (7), N-4-bromobenzyl-4,6,7,10-tetrahydroxy-8,14, didehydro-3,8-dimethoxy-morphinan]	> 80 µg/mL and > 154 µM	15.8 µg/mL and 30.5 µM	7.3	2.19 µg/mL and 4.2 µM	
COC1=C2[C@@H]3[C@H](O)c4ccc(OC)c(O)c4[C@]2(CCN3C2CCCC2)C[C@H](O)[C@@H]1O [Compound (8), N-cyclopentyl-4,6,7,10-tetrahydroxy-8,14, didehydro-3,8-dimethoxy-morphinan]	> 80 µg/mL and > 192 µM	27.6 µg/mL and 66.3 µM	18.9	1.46 µg/mL and 3.5 µM	
CC[C@]1(O)C[C@@H]2CN(CCc3c([nH]c4ccccc34)[C@@](C(=O)OC)(c3cc4c(cc3OC)N(C)[C@H]3[C@@](O)(C(=O)OC)[C@H](OC(C)=O)[C@]5(CC)C=CCN6CC[C@]43[C@@H]65)C2)C1 [Vinblastine, vinblastine, reference compound]	0.008 µg/mL and 9.9 nM	0.018 µg/mL and 22 nM			
COc1cc(NC(C)CCCN)c2ncccc2c1 (centres unmarked) [primaquine, reference compound]	20.1 µg/mL and 70.5 µM	2 µg/mL and 7 µM	11.7	0.16 µg/mL and 600 nM	
